# From paper PMC3914206
# Experiments:
# Format in all cases: binding
# panel of 442 kinases [1] = target: T1, panel of 442 kinases (Homo sapiens, UniProt O43283); details: Compound Concentration 10 µM
# T1 construct: purchased KINOMEscan
# T1 sequence (O43283 1-966): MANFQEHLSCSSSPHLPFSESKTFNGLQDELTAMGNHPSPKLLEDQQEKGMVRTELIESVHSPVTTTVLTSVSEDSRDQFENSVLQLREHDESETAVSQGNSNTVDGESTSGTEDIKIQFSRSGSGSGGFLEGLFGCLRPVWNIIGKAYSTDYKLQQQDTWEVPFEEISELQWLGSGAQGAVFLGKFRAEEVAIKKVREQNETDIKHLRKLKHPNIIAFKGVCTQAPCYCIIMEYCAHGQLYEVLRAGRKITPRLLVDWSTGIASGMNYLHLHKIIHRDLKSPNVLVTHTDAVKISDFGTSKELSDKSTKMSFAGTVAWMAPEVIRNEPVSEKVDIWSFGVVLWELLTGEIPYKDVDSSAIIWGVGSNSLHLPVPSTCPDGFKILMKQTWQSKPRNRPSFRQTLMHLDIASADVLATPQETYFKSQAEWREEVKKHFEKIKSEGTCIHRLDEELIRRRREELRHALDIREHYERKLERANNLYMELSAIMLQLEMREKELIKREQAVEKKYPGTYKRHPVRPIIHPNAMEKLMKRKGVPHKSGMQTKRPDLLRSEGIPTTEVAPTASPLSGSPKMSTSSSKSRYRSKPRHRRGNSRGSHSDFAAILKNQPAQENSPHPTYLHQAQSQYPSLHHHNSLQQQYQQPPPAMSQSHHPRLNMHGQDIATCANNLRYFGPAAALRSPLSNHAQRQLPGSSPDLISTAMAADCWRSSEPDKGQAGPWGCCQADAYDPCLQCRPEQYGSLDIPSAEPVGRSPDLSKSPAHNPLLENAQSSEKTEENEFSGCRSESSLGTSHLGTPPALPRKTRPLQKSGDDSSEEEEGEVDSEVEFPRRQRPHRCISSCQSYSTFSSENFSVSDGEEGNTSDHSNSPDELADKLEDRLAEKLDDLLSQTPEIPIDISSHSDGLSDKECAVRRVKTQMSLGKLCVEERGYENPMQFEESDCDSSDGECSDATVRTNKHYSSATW
# From the text: (§1) We assessed the selectivity of members of this scaffold using the KINOMEscan methodology across a near comprehensive panel of 442 kinases [[18,27]].
# panel of 442 kinases [2] = target: T2, panel of 442 kinases (Homo sapiens, UniProt P50750); details: Compound Concentration 10 µM
# T2 construct: purchased KINOMEscan
# T2 sequence (P50750 whole entry): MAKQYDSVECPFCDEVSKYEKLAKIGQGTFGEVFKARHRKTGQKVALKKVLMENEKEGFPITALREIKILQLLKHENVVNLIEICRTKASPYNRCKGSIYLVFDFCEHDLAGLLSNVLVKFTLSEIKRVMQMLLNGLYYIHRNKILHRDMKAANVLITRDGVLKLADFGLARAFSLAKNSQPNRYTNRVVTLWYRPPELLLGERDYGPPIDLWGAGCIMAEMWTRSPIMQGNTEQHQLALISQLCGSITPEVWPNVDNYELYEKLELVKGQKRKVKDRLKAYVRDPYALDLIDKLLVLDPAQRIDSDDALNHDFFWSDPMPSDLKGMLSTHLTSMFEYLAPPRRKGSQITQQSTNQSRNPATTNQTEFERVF
# From the text: as §1
# [3] = target: T3, selected panels of kinases in HeLa and PC3 cell lysates (Homo sapiens, UniProt O60307); test: KiNativ chemical proteomics profiling in HeLa and PC3 cell lysates; details: 10 uM, peptide DLk[…], labeling site Lys2
# T3 construct: endogenous in cells; host or cells: HeLa and PC3 cell lysates
# T3 sequence (O60307 whole entry): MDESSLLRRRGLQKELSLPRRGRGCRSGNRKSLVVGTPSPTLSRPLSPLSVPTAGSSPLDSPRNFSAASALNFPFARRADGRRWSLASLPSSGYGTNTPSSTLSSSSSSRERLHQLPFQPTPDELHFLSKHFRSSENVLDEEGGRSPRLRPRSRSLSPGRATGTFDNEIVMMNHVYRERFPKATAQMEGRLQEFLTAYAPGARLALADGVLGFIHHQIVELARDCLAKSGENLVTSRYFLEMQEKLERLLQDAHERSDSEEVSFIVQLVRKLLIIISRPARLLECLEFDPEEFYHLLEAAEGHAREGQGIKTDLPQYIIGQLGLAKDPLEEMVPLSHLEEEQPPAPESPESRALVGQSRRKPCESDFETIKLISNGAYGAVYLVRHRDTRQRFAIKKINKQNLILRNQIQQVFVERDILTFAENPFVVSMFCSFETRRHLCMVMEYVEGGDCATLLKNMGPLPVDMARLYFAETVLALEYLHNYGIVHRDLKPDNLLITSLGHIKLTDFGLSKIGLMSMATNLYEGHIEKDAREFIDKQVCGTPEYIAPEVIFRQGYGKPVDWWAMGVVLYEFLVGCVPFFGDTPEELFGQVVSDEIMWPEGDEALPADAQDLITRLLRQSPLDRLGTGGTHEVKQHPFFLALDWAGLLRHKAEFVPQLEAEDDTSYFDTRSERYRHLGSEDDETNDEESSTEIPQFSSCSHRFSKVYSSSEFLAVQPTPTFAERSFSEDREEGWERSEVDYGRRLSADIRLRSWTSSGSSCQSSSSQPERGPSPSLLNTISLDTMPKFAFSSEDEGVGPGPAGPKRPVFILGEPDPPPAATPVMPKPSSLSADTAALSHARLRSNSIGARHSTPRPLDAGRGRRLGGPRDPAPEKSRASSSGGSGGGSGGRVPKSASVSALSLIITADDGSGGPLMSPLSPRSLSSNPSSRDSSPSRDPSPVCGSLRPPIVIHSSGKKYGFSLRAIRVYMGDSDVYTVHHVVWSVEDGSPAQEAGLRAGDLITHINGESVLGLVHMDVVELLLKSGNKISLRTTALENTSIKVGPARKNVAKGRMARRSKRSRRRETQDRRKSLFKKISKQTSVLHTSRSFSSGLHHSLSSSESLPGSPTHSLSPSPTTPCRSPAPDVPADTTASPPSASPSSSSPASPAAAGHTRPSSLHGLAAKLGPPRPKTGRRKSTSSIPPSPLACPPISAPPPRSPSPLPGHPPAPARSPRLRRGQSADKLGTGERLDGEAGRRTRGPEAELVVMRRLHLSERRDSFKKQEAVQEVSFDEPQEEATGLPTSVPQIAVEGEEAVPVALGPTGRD
# [4] = target: T4, selected panels of kinases in HeLa and PC3 cell lysates (Homo sapiens, UniProt P24941); test: as above; details: 10 uM, peptide DLk[…], labeling site Lys2
# T4 construct: endogenous in cells; host or cells: HeLa and PC3 cell lysates
# [5] = target: T5, selected panels of kinases in HeLa and PC3 cell lysates (Homo sapiens, UniProt Q13535); test: as above; details: 10 uM, peptide FYIMMCkPK, labeling site ATP
# T5 construct: endogenous in cells; host or cells: HeLa and PC3 cell lysates
# [6] = target: T6, selected panels of kinases in HeLa and PC3 cell lysates (Homo sapiens, UniProt Q15418); test: as above; details: 10 uM; RSK1 domain1; peptide LTDFGLSkEAIDHEK; proteome HEL; labeling site Activation Loop
# T6 construct: endogenous in cells; host or cells: HeLa and PC3 cell lysates
# T6 sequence (Q15418 whole entry, the tested form may be a part): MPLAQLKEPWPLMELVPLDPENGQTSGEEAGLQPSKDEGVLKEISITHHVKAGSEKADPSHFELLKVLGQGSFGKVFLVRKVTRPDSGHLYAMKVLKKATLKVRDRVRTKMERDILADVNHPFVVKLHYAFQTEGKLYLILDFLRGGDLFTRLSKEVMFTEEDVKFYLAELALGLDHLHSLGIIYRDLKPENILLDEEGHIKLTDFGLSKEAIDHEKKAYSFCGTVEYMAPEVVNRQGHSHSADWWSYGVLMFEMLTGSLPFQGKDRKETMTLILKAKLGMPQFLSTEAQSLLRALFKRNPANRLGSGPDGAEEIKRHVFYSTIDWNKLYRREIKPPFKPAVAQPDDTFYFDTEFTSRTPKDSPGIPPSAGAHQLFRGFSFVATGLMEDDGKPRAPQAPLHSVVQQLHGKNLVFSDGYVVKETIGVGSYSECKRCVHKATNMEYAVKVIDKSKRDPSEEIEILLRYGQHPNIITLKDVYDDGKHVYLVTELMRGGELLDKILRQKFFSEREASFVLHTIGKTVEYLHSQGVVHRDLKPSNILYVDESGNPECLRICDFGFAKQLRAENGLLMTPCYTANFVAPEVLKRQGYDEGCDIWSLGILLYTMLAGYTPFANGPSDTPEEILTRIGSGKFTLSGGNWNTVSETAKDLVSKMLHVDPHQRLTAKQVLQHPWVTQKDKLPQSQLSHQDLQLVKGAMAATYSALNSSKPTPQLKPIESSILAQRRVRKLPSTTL
# [7] = target: T7, selected panels of kinases in HeLa and PC3 cell lysates (Homo sapiens, UniProt Q16584); test: as above; details: 10 uM, peptide DLk[…], labeling site Lys2
# T7 construct: endogenous in cells; host or cells: HeLa and PC3 cell lysates
# T7 sequence (Q16584 whole entry): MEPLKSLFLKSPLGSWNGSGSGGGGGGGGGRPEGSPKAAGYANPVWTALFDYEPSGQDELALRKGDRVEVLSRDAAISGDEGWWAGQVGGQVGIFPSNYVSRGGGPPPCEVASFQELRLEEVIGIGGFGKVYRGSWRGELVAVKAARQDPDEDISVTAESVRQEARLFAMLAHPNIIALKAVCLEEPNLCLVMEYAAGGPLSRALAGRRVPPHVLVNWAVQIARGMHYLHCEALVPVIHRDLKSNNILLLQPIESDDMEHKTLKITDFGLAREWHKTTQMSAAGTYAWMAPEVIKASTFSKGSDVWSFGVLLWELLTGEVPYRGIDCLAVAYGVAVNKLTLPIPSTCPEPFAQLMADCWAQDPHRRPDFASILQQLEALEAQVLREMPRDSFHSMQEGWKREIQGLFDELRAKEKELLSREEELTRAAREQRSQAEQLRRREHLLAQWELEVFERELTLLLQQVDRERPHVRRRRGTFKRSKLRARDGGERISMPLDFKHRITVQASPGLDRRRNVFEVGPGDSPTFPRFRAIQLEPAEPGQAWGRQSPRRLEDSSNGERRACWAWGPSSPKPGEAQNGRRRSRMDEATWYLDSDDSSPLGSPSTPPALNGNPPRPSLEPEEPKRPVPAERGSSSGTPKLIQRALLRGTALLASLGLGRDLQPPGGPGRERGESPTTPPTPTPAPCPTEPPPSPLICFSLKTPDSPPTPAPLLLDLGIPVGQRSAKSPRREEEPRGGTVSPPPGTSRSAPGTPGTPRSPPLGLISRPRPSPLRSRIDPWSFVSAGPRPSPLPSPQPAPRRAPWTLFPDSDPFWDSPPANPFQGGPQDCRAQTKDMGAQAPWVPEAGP
# [8] = target: T8, selected panels of kinases in HeLa and PC3 cell lysates (Homo sapiens, UniProt Q7RTN6); test: as above; details: 10 uM; STLK5; peptide YSVk[…]; proteome HEL; labeling site Activation Loop
# T8 construct: endogenous in cells; host or cells: HeLa and PC3 cell lysates
# T8 sequence (Q7RTN6 whole entry): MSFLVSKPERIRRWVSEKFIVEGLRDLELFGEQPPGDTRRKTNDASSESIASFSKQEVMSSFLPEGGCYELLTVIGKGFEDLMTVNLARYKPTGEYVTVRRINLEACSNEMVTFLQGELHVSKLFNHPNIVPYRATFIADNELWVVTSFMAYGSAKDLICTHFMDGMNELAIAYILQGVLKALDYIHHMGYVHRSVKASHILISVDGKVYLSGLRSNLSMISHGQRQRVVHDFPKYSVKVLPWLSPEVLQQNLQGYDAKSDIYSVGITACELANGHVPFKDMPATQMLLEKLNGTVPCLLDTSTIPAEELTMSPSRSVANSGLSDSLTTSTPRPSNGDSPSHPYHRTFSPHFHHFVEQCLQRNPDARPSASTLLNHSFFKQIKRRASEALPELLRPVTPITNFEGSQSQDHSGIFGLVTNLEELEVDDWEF
SMILES,KINOMEscan: LZK (panel of 442 kinases [1]),KINOMEscan: CDK9 (panel of 442 kinases [2]),"% Inhibiton, MAST3 ([3]; proteome HEL)","% Inhibiton, MAST3 ([3]; proteome PC3)","% Inhibiton, CDK2 ([4]; proteome HEL)","% Inhibiton, CDK2 ([4]; proteome PC3)","% Inhibiton, ATR ([5]; proteome HEL)","% Inhibiton, ATR ([5]; proteome PC3)",% Inhibition RSK1 domain1 [6],"% Inhibiton, MLK3 ([7]; proteome HEL)","% Inhibiton, MLK3 ([7]; proteome PC3)",% Inhibition STLK5 [8]
COc1cc(C(=O)N2CCC(N3CCN(C)CC3)CC2)ccc1Nc1ncc2c(n1)N(C)c1ccccc1C(=O)N2C [15 (LRRK2-IN-1)],100,100,–,–,–,–,–,–,–,–,–,–
COc1cc(C(=O)N2CCC(N3CCN(C)CC3)CC2)ccc1Nc1ncc2c(n1)N1CCc3cccc(c31)C(=O)N2C [Compound 24],–,96,–,–,–,–,–,–,–,–,–,–
"COc1cc(C(=O)N2CCC(N3CCN(C)CC3)CC2)ccc1Nc1ncc2c(n1)N(C1CCCC1)c1ccccc1C(=O)N2C [Compound 25, 11-cyclopentyl-2-((2-methoxy-4-(4-(4-methylpiperazin-1-yl)piperidine-1-carbonyl)phenyl)amino)-5-methyl-5H-benzo[e]pyrimido[5,4-b][1,4]diazepin-6(11H)-one]",100,98,0.5%,-6.8%,9.4%,5.0%,8.5%,21.0%,0.161%,3.1%,4.4%,-32.9%
CCOc1cc(C(=O)N2CCC(N3CCN(C)CC3)CC2)ccc1Nc1ncc2c(n1)N(C1CCCC1)c1ccccc1C(=O)N2C [Compound 26],92,100,-5.1%,-3.9%,7%,-6.7%,-9.8%,-4.3%,5.6%,-12.1%,11.9%,~72.8%
